These results are taken from ChEMBL document CHEMBL3217521, “Analogues of the HIV-Tat peptide containing N-modified arginines as potent inhibitors of protein arginine N-methyltransferases” (Medchemcomm, 2012).

Activity calls are given as the source filed them. The rule behind the calls is not given here. Starred links: 1 amine or outer side, 2 acyl side, 3 side chain; linkers in the order of their positions; H or OH if unused. Non-standard residues stand in square brackets, D forms with d. Residues, ends and D or L forms follow the SMILES beside them. X2 = N/C(=N\CC(F)(F)F)NCCC[C@H](N[*:1])C(=O)[*:2]; X3 = N/C(=N\Cc1ccccc1)NCCC[C@H](N[*:1])C(=O)[*:2]; X4 = NC(NCCC[C@H](N[*:1])C(=O)[*:2])=[N+]1CCCC1; X5 = N/C(=N\C1CC1)NCCC[C@H](N[*:1])C(=O)[*:2]; X1 = N/C(=N\O)NCCC[C@H](N[*:1])C(=O)[*:2]

Assay [1] concerns the target T1, Protein arginine N-methyltransferase 1 (Homo sapiens, UniProt Q99873). In words: Activity at PRMT1 (unknown origin) using [methyl-14C]AdoMet at 0.25 to 200 uM after 60 to 120 mins by tricine gel electrophoresis.
Target sequence in this assay (Q99873 whole entry, looked up): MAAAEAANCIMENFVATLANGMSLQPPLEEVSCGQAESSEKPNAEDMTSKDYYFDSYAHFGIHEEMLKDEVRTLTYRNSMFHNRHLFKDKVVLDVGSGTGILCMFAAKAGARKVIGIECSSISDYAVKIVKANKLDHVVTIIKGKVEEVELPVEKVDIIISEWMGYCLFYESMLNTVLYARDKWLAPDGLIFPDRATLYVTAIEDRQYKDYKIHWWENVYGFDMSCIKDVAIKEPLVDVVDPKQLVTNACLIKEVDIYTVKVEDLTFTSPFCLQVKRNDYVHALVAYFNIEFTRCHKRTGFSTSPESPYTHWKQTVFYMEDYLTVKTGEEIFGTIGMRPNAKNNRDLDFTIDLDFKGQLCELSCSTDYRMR
The target of assay [2] is T2, Protein arginine N-methyltransferase 6 (Homo sapiens, UniProt Q96LA8). In words: Inhibition of PRMT6 (unknown origin) using AdoMet by Michaelis-Menten equation analysis.
Target sequence in this assay (Q96LA8 whole entry): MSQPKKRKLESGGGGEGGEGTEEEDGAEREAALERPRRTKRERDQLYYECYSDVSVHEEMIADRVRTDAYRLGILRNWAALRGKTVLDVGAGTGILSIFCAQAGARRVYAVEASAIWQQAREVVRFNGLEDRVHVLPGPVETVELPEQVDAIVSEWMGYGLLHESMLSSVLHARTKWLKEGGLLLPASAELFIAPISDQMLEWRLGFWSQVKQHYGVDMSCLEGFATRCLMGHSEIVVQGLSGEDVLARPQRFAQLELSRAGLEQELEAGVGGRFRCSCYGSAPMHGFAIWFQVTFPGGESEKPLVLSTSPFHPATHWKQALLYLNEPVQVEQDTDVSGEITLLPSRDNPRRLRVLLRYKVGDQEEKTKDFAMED
Assay [3] addresses T2, Protein arginine N-methyltransferase 6. In words: Activity at PRMT6 (unknown origin) using [methyl-14C]AdoMet at 0.25 to 200 uM after 60 to 120 mins by tricine gel electrophoresis.
Target sequence in this assay (Q96LA8 whole entry, looked up): as the sequence (Q96LA8 whole entry) above
Assay [4] concerns the target T1, Protein arginine N-methyltransferase 1. Put plainly: Inhibition of PRMT1 (unknown origin) using AdoMet by Michaelis-Menten equation analysis.
Target sequence in this assay (Q99873 whole entry): as the sequence (Q99873 whole entry, looked up) above
For assay [5], the target named is T2, Protein arginine N-methyltransferase 6. In words: Activity at PRMT6 (unknown origin) assessed as methylation of substituted arginines by LC-MS/MS analysis.
Target sequence in this assay (Q96LA8 whole entry, looked up): as the sequence (Q96LA8 whole entry) above
Assay [6] deals with T1, Protein arginine N-methyltransferase 1. Put plainly: Activity at PRMT1 (unknown origin) assessed as methylation of substituted arginines by LC-MS/MS analysis.
Target sequence in this assay (Q99873 whole entry, looked up): as the sequence (Q99873 whole entry, looked up) above
The target of assay [7] is T3, Histone-arginine methyltransferase CARM1 (Homo sapiens) (UniProt Q86X55).
T3 sequence (whole entry): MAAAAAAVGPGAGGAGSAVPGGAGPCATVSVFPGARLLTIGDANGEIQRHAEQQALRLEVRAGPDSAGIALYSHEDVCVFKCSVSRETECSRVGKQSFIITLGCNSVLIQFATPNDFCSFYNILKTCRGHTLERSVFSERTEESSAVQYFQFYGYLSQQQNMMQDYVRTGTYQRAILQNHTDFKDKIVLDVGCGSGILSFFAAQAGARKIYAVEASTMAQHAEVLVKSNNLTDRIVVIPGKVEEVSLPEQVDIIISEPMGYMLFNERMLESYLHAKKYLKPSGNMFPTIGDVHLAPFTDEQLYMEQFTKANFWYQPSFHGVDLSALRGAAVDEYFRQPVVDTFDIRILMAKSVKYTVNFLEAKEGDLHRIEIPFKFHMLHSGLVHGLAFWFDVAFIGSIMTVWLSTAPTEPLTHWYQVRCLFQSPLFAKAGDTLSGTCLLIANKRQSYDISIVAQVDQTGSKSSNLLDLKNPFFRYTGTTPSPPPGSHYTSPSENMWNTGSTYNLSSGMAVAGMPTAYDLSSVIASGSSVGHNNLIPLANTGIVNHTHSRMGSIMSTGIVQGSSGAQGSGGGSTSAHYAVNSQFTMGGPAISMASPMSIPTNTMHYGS
In words: Activity at PRMT4 (unknown origin) using [methyl-14C]AdoMet at 0.25 to 200 uM after 60 to 120 mins by tricine gel electrophoresis.

The species entered for assay [8] is Homo sapiens. In words: Ratio of PRMT4 (unknown origin) to PRMT1 (unknown origin).
The species entered for assay [9] is Homo sapiens. In words: Ratio of PRMT4 (unknown origin) to PRMT6 (unknown origin).
In assay [10] the target is T2, Protein arginine N-methyltransferase 6. In words: Activity at PRMT6 (unknown origin) using AdoMet assessed as formation of MMA and aDMA at 0.25 to 200 uM after 60 to 120 mins by LC-MS/MS analysis.
Target sequence in this assay (Q96LA8 whole entry, looked up): as the sequence (Q96LA8 whole entry) above
The target in assay [11] is T3, Histone-arginine methyltransferase CARM1 (Homo sapiens). Put plainly: Activity at PRMT4 (unknown origin) using AdoMet assessed as formation of MMA and aDMA at 0.25 to 200 uM after 60 to 120 mins by LC-MS/MS analysis.
In assay [12] the target is T1, Protein arginine N-methyltransferase 1. Put plainly: Activity at PRMT1 (unknown origin) using AdoMet assessed as formation of MMA and aDMA at 0.25 to 200 uM after 60 to 120 mins by LC-MS/MS analysis.
Target sequence in this assay (Q99873 whole entry, looked up): as the sequence (Q99873 whole entry, looked up) above
The target of assay [13] is T2, Protein arginine N-methyltransferase 6. In words: Activity at 400 nM of PRMT6 (unknown origin) using histone H3 tail peptide.
Target sequence in this assay (Q96LA8 whole entry, looked up): as the sequence (Q96LA8 whole entry) above
Assay [14] has as its target T1, Protein arginine N-methyltransferase 1. In words: Inhibition of 50 nM of PRMT1 (unknown origin) up to 200 uM.
Target sequence in this assay (Q99873 whole entry, looked up): as the sequence (Q99873 whole entry, looked up) above
Assay [15] deals with T2, Protein arginine N-methyltransferase 6. Put plainly: Activity at 50 to 800 nM of PRMT6 (unknown origin) assessed as increase of Vmax up to 200 uM relative to control.
Target sequence in this assay (Q96LA8 whole entry, looked up): as the sequence (Q96LA8 whole entry) above
For assay [16] the target is unchanged. Put plainly: Activity at 50 to 100 nM of PRMT6 (unknown origin) up to 200 uM.
Target sequence in this assay (Q96LA8 whole entry, looked up): as the sequence (Q96LA8 whole entry) above
Assay [17] concerns the target T1, Protein arginine N-methyltransferase 1. In words: Activity at 50 to 800 nM of PRMT1 (unknown origin) up to 200 uM.
Target sequence in this assay (Q99873 whole entry, looked up): as the sequence (Q99873 whole entry, looked up) above
Assay [18] addresses T2, Protein arginine N-methyltransferase 6. Put plainly: Activity at 100 to 400 nM of PRMT6 (unknown origin) assessed as increase of Vmax up to 200 uM relative to control.
Assay [19] deals with T1, Protein arginine N-methyltransferase 1. In words: Activity at 50 to 100 nM of PRMT1 (unknown origin) up to 200 uM.
Target sequence in this assay (Q99873 whole entry, looked up): as above
Assay [20] concerns the target T2, Protein arginine N-methyltransferase 6. Put plainly: Inhibition of 50 to 100 nM of PRMT6 (unknown origin) up to 200 uM.
Assay [21] addresses T1, Protein arginine N-methyltransferase 1. Put plainly: Inhibition of 50 to 800 nM of PRMT1 (unknown origin) up to 200 uM.
Assay [22] shares this target. In words: Activity at 800 nM of PRMT1 (unknown origin) at 100 to 200 uM.
The target in assay [23] is T2, Protein arginine N-methyltransferase 6. In words: Activity at 50 to 800 nM of PRMT6 (unknown origin) assessed as increase of Km up to 200 uM relative to control.
The target of assay [24] is T1, Protein arginine N-methyltransferase 1. In words: Activity at PRMT1 (unknown origin) at 100 uM using => 5 uM of AdoMet.
Assay [25] has as its target T2, Protein arginine N-methyltransferase 6. In words: Activity at PRMT6 (unknown origin) at 100 uM using => 5 uM of AdoMet.

What is called Ki is a measure of affinity in units of concentration, obtained from inhibition or displacement. Low values mean tighter binding, high ones weaker binding. For the compound `N=C(N)NCCC[C@H](NC(=O)CN)C(=O)N[C@@H](CCCCN)C(=O)N[C@@H](CCCCN)C(=O)N[C@@H](CCCNC(N)=[N+]1CCCC1)C(=O)N[C@@H](CCCNC(=N)N)C(=O)N[C@@H](CCC(N)=O)C(=O)N[C@@H](CCCNC(=N)N)C(=O)N[C@@H](CCCNC(=N)N)C(=O)N[C@@H](CCCNC(=N)N)C(=O)N1CCC[C@H]1C(=O)N1CCC[C@H]1C(=O)N[C@@H](CCC(N)=O)C(=O)O` (H-GRKK[X4]RQRRRPPQ-OH), the outcome in assay [1], in assay [3] and in [7] was Active. The Ki was determined as 77.3 µM in [2] and 7.62 µM in [4]. The result in assay [5] and in assay [6] was inactive.
Turning to `CC/N=C(\N)NCCC[C@H](NC(=O)[C@H](CCCCN)NC(=O)[C@H](CCCCN)NC(=O)[C@H](CCCNC(=N)N)NC(=O)CN)C(=O)N[C@@H](CCCNC(=N)N)C(=O)N[C@@H](CCC(N)=O)C(=O)N[C@@H](CCCNC(=N)N)C(=O)N[C@@H](CCCNC(=N)N)C(=O)N[C@@H](CCCNC(=N)N)C(=O)N1CCC[C@H]1C(=O)N1CCC[C@H]1C(=O)N[C@@H](CCC(N)=O)C(=O)O`, the outcome in [1], in assay [10], in assay [3], in [11], in assay [12] and in assay [7] was Active. The Selectivity ratio in the assay listed under Homo sapiens [8] and in the assay listed under Homo sapiens [9] was 10 in each case. The Ki was 31.3 µM in [2] and 4.29 µM in assay [4]. Further, the outcome in assay [5] and in assay [6] was inactive.
For the compound `N=C(N)NCCC[C@H](NC(=O)CN)C(=O)N[C@@H](CCCCN)C(=O)N[C@@H](CCCCN)C(=O)N[C@@H](CCCNC(=N)N)C(=O)N[C@@H](CCCNC(=N)N)C(=O)N[C@@H](CCC(N)=O)C(=O)N[C@@H](CCCNC(=N)N)C(=O)N[C@@H](CCCNC(=N)N)C(=O)N[C@@H](CCCNC(=N)N)C(=O)N1CCC[C@H]1C(=O)N1CCC[C@H]1C(=O)N[C@@H](CCC(N)=O)C(=O)O`, the result in [13], in [1], in assay [10], in assay [16], in assay [17] and in [18] was Active. The result in assay [19], in [3], in [11], in assay [12], in assay [22] and in [7] was Active. Moreover, the Selectivity ratio in the assay filed under Homo sapiens [8] and in the assay listed under Homo sapiens [9] was 10 throughout. Besides, the inhibition result in [14], in [20] and in assay [21] was “inactive” each time. Also, the fold change (FC) in [15] is 9; in assay [23] it was 87. Besides, the Ki in [2] turned out to be 35.1 µM; in assay [4], 4.79 µM.
For the compound `N=C(N)NCCC[C@H](NC(=O)CN)C(=O)N[C@@H](CCCCN)C(=O)N[C@@H](CCCCN)C(=O)N[C@@H](CCCN/C(N)=N/CC(F)(F)F)C(=O)N[C@@H](CCCNC(=N)N)C(=O)N[C@@H](CCC(N)=O)C(=O)N[C@@H](CCCNC(=N)N)C(=O)N[C@@H](CCCNC(=N)N)C(=O)N[C@@H](CCCNC(=N)N)C(=O)N1CCC[C@H]1C(=O)N1CCC[C@H]1C(=O)N[C@@H](CCC(N)=O)C(=O)O` (H-GRKK[X2]RQRRRPPQ-OH), the outcome in assay [1], in assay [3] and in [7] was Active. Further, the figures for the Ki in [2] and in assay [4] were 43.3 µM and 2.98 µM, respectively. Further, the result in assay [5] and in assay [6] was inactive.
Regarding `N=C(N)NCCC[C@H](NC(=O)CN)C(=O)N[C@@H](CCCCN)C(=O)N[C@@H](CCCCN)C(=O)N[C@@H](CCCN/C(N)=N/Cc1ccccc1)C(=O)N[C@@H](CCCNC(=N)N)C(=O)N[C@@H](CCC(N)=O)C(=O)N[C@@H](CCCNC(=N)N)C(=O)N[C@@H](CCCNC(=N)N)C(=O)N[C@@H](CCCNC(=N)N)C(=O)N1CCC[C@H]1C(=O)N1CCC[C@H]1C(=O)N[C@@H](CCC(N)=O)C(=O)O` (H-GRKK[X3]RQRRRPPQ-OH), the result in [1], in assay [3] and in assay [7] was Active. The Ki in assay [2] stood at 19.9 µM; in [4] it was 2.68 µM. In addition, the outcome in assay [5] and in [6] was inactive.
`N=C(N)NCCC[C@H](NC(=O)CN)C(=O)N[C@@H](CCCCN)C(=O)N[C@@H](CCCCN)C(=O)N[C@@H](CCCN/C(N)=N/C1CC1)C(=O)N[C@@H](CCCNC(=N)N)C(=O)N[C@@H](CCC(N)=O)C(=O)N[C@@H](CCCNC(=N)N)C(=O)N[C@@H](CCCNC(=N)N)C(=O)N[C@@H](CCCNC(=N)N)C(=O)N1CCC[C@H]1C(=O)N1CCC[C@H]1C(=O)N[C@@H](CCC(N)=O)C(=O)O` (H-GRKK[X5]RQRRRPPQ-OH): the outcome in assay [1], in [3] and in assay [7] was Active. For the same compound, the Ki is > 100 µM in assay [2] and 2.9 µM in [4].
Take `N=C(N)NCCC[C@H](NC(=O)CN)C(=O)N[C@@H](CCCCN)C(=O)N[C@@H](CCCCN)C(=O)N[C@@H](CCCN/C(N)=N/O)C(=O)N[C@@H](CCCNC(=N)N)C(=O)N[C@@H](CCC(N)=O)C(=O)N[C@@H](CCCNC(=N)N)C(=O)N[C@@H](CCCNC(=N)N)C(=O)N[C@@H](CCCNC(=N)N)C(=O)N1CCC[C@H]1C(=O)N1CCC[C@H]1C(=O)N[C@@H](CCC(N)=O)C(=O)O` (H-GRKK[X1]RQRRRPPQ-OH): the result in assay [1], in [10], in assay [3], in assay [11], in [12] and in [7] was Active. For the same compound, the Selectivity ratio in the assay filed under Homo sapiens [8] and in the assay listed under Homo sapiens [9] was 10 each time. Besides, the Ki in [2] was found to be 63 µM; in assay [4] it was 2.68 µM.
For the compound H-GRKKARQRRRPPQ-OH, the outcome in assay [1], in assay [10], in assay [24], in assay [25], in [3] and in assay [11] was Active. In addition, the outcome in [12] and in assay [7] was Active. Besides, the Selectivity ratio in the assay filed under Homo sapiens [8] and in the assay filed under Homo sapiens [9] was 10 each time. In addition, the values for the Ki in assay [2] and in assay [4] were 35.9 µM and 7.6 µM, respectively. Also, the result in assay [5] and in assay [6] was inactive.
